According to patent US20140227191A1, “L-GLUTAMIC ACID AND L-GLUTAMINE DERIVATIVE (III), USE THEREOF AND METHOD FOR OBTAINING THEM” (BAYER SCHERING PHARMA AKTIENGESELLSCHAFT, priority 2008, published 2014):
Structures can show the parent of a compound that is named as a salt.

Test system: A549 cells (human Non Small Cell Lung Cancer)
Test: cytotoxicity assay with A549 cells using standard Alamar Blue Assay
Conditions: for cell vitality: A549 cells, 48 h incubation, Alamar Blue, versus control cells, L-Glutamate at 2 mM
Method: A Dulbecco's modified Eagle's Medium (Sigma D0422), supplemented with Glutamine and 10% foetal calf serum (FCS) were used as incubation buffer. The cells were incubated for 48 h with test compounds and investigated according to manufacturer's protocol.
Afterwards, cell vitality was measured with the Alamar Blue assay kit as described above.

Structure (SMILES): N[C@@H](C[C@H](CCCF)C(=O)O)C(=O)O [Example 1]
- cell vitality: strong decrease of the cell vitality
- EC50 (Homo sapiens, A549, read-out: EC50 (cell vitality)): ~38 µM

Structure (SMILES): N[C@@H](C[C@H](Cc1cc(C(F)(F)F)ccc1F)C(=O)O)C(=O)O [Example 5, Neutral sodium salt of (2S,4S)-2-Amino-4-(2-fluoro-5-trifluoromethyl-benzyl)-pentane dioic acid]
- cell vitality: strong decrease of the cell vitality

Structure (SMILES): N[C@@H](CCC(=O)O)C(=O)O [L-Glutamate, reference compound]
- cell vitality: no differences in cell vitality
